Measured values from article PMC6366404, “4-(3-Nitrophenyl)thiazol-2-ylhydrazone derivatives as antioxidants and selective hMAO-B inhibitors: synthesis, biological activity and computational analysis” (Journal of Enzyme Inhibition and Medicinal Chemistry, 2019).
pIC50: −log10 of the molar value.

Tests used:
[1] = Metal chelating activity on ferrous ions; details: ferrozine
[2] = target: T1, hMAO-B (Homo sapiens, UniProt P27338); assay: Reversibility of MAO-B inhibition by dialysis; format: biochemical
T1 sequence (P27338 1-520): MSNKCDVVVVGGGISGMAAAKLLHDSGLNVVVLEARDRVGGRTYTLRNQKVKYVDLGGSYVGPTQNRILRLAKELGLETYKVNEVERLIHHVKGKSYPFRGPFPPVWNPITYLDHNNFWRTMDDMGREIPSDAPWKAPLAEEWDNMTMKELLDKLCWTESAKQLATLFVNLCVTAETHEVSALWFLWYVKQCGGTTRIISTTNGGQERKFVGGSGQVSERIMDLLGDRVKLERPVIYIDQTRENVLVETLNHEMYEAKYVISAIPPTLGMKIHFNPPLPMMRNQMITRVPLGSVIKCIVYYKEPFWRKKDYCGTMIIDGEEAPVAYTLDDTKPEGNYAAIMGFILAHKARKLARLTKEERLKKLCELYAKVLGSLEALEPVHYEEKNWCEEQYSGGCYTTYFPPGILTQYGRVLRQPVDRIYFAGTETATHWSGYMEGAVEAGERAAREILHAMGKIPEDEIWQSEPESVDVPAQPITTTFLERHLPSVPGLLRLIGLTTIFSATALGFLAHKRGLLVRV
Description: Stock solutions of the test compounds were prepared in DMSO and added to the incubations to yield 4% DMSO. The samples were dialyzed for 24 h at 4 °C in 80 ml of dialysis buffer using Slide-A-Lyzer® dialysis cassettes (Thermo Scientific) with a molecular weight cut-off of 10,000 and a sample volume capacity of 0.5–3 ml. The dialysis buffer was replaced at 3 and 7 h after the start of dialysis. Following dialysis, the dialysis samples were diluted twofold with the addition of kynuramine to yield a kynuramine concentration and inhibitor concentration of 50 µM and 2 × IC50, respectively. The reactions (500 µL) were incubated for 20 min at 37 °C and terminated with NaOH (400 μL, 2 N) and water (1000 µL). The fluorescence of 4-hydroxyquinoline in these samples was measured as described for the IC50 determination above. […] Undialysed mixtures of MAO-B and the test inhibitors were maintained at 4 °C for 24 h and diluted and assayed as above. All reactions were carried out in triplicate and the residual enzyme catalytic rates are expressed as mean ± SD.
Reversibility of MAO inhibition is an important factor to consider when evaluating the inhibition properties of potential inhibitors. Irreversible MAO inhibitors, particularly of the MAO-A isoform, are associated with dangerous adverse effects such as the cheese reaction, which occurs when irreversible MAO-A inhibitors are taken with tyramine-rich food[51]. […] The samples were diluted twofold and the residual MAO-B activity was measured. For reversible inhibition, dialysis is expected to reverse inhibition by the test inhibitors and restore enzyme activity to the level of the negative control. […] A final experiment consisted of incubations containing MAO-B and tested inhibitors which were not dialyzed, but maintained for 24 h.

[3] = target: T1, hMAO-B; assay: hMAO-B inhibition, IC50 determination (kynuramine fluorescence); format: biochemical
Description: The procedure for the measurement of IC50 values for the inhibition of MAO has been reported. The enzyme reactions were prepared to a volume of […] in potassium phosphate buffer at pH 7.4 (100 mM, made isotonic with KCl) and contained kynuramine (50 μM) and the test inhibitors (0.003–100 µM). Stock solutions of the test inhibitors were prepared in DMSO and added to the reactions to yield 4% DMSO. The enzyme reactions were initiated with the addition of recombinant hMAO-A (0.0075 mg protein/mL) or hMAO-B (0.015 mg protein/mL) and incubated for 20 min at 37 °C. At endpoint, the reactions were terminated with 80 µL sodium hydroxide (2N) and the fluorescence of 4-hydroxyquinoline, the oxidation product of kynuramine, was measured (λex = 310; λem = 400 nm)[33]. 4-Hydroxyquinoline was quantified with a calibration curve (0.047–1.56 μM) and the rate of 4-hydroxyquinoline formation was fitted to the one site competition model of the Prism 5 software package (GraphPad). From the resulting sigmoidal plots, the IC50 values were estimated. All enzyme reactions were carried out in triplicate and IC50 values are given as the mean ± standard deviation (SD).

## CC(=NNc1nc(-c2cccc([N+](=O)[O-])c2)cs1)c1cccs1 [Compound 4, 1-(4-(3-Nitrophenyl)thiazol-2-yl)-2-(1-(thiophen-2-yl)ethylidene)hydrazine]
[1]
  pIC50: < 2.30
[2]; dialysis 24 h
  Reversibility of MAO-B inhibition: partially reversible
[2]; inhibitor at 4 × IC50, not dialyzed, maintained 24 h
  Residual MAO-B activity, undialysed mixtures: 33%
[2]; inhibitor at 4 × IC50, preincubated 15 min, dialyzed 24 h, relative to negative control
  Residual MAO-B activity after dialysis: 61%
[3]
  pIC50: 8.74
[3]; ratio (IC50 hMAO-A)/(IC50 hMAO-B)
  Selectivity index (SI) for the MAO-B isoform: 922
